Experimental data from the NIST ThermoML archive (doi:10.1021/acs.jced.6b00542).

What was measured:
[1] = xn = mol fraction of the nth substance listed; details: Liquid, x2 = 0; for speed of sound: 100 kPa, Frequency=3 MHz, Sing-around technique in a fixed-path interferometer; for viscosity / mass density: 102 kPa; for viscosity: Concentric cylinders viscometry; for mass density: Vibrating tube method
[2] = for speed of sound: 100 kPa, Frequency=3 MHz, Sing-around technique in a fixed-path interferometer; for speed of sound / viscosity / mass density: Liquid; for viscosity / mass density: 102 kPa; for viscosity: Concentric cylinders viscometry; for mass density: Vibrating tube method; for surface tension liquid-gas: Pendant drop shape

CCCCCCCCCCCC [dodecane] + CCCCc1ccccc1
[1]
Details | mass density [kg/m3] | speed of sound [m/s] | viscosity [mPa·s]
293.15 K | 748.79 | 1297.9 | 1.47
303.15 K | 741.54 | 1259.6 | 1.24
313.15 K | 734.25 | 1221.9 | 1.06
323.15 K | 726.94 | 1184.7 | 0.916
333.15 K | 719.59 | 1148 | 0.801
343.15 K | 712.2 | – | 0.706
353.15 K | 704.7 | – | 0.627
363.15 K | 697.2 | – | 0.562
373.15 K | 689.6 | – | 0.506

CCCCCCCCCCCCCCCCC [heptadecane]
[2]
Details | mass density [kg/m3] | speed of sound [m/s] | viscosity [mPa·s]
303.15 K | 771.02 | 1330.9 | 3.25
313.15 K | 764.16 | 1294.5 | 2.61
323.15 K | 757.3 | 1258.8 | 2.14
333.15 K | 750.45 | 1223.8 | 1.79
343.15 K | 743.7 | – | 1.52
353.15 K | 736.8 | – | 1.3
363.15 K | 729.8 | – | 1.14
373.15 K | 723 | – | 1

CCCCCCCCCCCCCCCC [hexadecane]
[2]
Details | mass density [kg/m3] | speed of sound [m/s] | surface tension liquid-gas [mN/m] | viscosity [mPa·s]
293.15 K | 773.52 | 1357.3 | – | 3.45
294.8 K | – | – | 27.4 | –
303.15 K | 766.58 | 1320 | – | 2.74
313.15 K | 759.66 | 1283.4 | – | 2.22
323.15 K | 752.74 | 1247.5 | – | 1.84
333.15 K | 745.82 | 1212.1 | – | 1.55
343.15 K | 738.8 | – | – | 1.32
353.15 K | 731.9 | – | – | 1.14
363.15 K | 724.9 | – | – | 1
373.15 K | 717.8 | – | – | 0.887

CCCCCCCCCCCCCCCC [hexadecane] + CCCCc1ccccc1
[1]
Details | mass density [kg/m3] | speed of sound [m/s] | viscosity [mPa·s]
293.15 K | 773.52 | 1357.3 | 3.45
303.15 K | 766.58 | 1320 | 2.74
313.15 K | 759.66 | 1283.4 | 2.22
323.15 K | 752.74 | 1247.5 | 1.84
333.15 K | 745.82 | 1212.1 | 1.55
343.15 K | 738.8 | – | 1.32
353.15 K | 731.9 | – | 1.14
363.15 K | 724.9 | – | 1
373.15 K | 717.8 | – | 0.887

CCCCCCCCCCCCCC [tetradecane]
[2]
Details | mass density [kg/m3] | speed of sound [m/s] | surface tension liquid-gas [mN/m] | viscosity [mPa·s]
293.15 K | 762.71 | 1331.2 | – | 2.3
294.6 K | – | – | 26.2 | –
303.15 K | 755.65 | 1293.6 | – | 1.88
313.15 K | 748.58 | 1256.4 | – | 1.56
323.15 K | 741.5 | 1220.1 | – | 1.32
333.15 K | 734.4 | 1184.1 | – | 1.13
343.15 K | 727.5 | – | – | 0.98
353.15 K | 720.3 | – | – | 0.858
363.15 K | 713.1 | – | – | 0.76
373.15 K | 705.8 | – | – | 0.679

CCCCCCCCCCCCCC [tetradecane] + CCCCc1ccccc1
[1]
Details | mass density [kg/m3] | speed of sound [m/s] | viscosity [mPa·s]
293.15 K | 762.71 | 1331.2 | 2.3
303.15 K | 755.65 | 1293.6 | 1.88
313.15 K | 748.58 | 1256.4 | 1.56
323.15 K | 741.5 | 1220.1 | 1.32
333.15 K | 734.4 | 1184.1 | 1.13
343.15 K | 727.5 | – | 0.98
353.15 K | 720.3 | – | 0.858
363.15 K | 713.1 | – | 0.76
373.15 K | 705.8 | – | 0.679
